Reference: patent US9255093B2, “Polycyclic HERG activators” (NOVARTIS AG, priority 2014, dated 2016)

What follows are compounds tested against T1, hERG (human ether-a-go-go-related gene) potassium channel (Homo sapiens, UniProt Q12809) (assay: QPatch automated patch-clamp hERG activator 4-concentration EC50 assay). Conditions: increase of hERG tail current amplitude at 7 second (TL7); 10 uM; hERG stably expressed in CHO cells.
T1 sequence (Q12809 whole entry): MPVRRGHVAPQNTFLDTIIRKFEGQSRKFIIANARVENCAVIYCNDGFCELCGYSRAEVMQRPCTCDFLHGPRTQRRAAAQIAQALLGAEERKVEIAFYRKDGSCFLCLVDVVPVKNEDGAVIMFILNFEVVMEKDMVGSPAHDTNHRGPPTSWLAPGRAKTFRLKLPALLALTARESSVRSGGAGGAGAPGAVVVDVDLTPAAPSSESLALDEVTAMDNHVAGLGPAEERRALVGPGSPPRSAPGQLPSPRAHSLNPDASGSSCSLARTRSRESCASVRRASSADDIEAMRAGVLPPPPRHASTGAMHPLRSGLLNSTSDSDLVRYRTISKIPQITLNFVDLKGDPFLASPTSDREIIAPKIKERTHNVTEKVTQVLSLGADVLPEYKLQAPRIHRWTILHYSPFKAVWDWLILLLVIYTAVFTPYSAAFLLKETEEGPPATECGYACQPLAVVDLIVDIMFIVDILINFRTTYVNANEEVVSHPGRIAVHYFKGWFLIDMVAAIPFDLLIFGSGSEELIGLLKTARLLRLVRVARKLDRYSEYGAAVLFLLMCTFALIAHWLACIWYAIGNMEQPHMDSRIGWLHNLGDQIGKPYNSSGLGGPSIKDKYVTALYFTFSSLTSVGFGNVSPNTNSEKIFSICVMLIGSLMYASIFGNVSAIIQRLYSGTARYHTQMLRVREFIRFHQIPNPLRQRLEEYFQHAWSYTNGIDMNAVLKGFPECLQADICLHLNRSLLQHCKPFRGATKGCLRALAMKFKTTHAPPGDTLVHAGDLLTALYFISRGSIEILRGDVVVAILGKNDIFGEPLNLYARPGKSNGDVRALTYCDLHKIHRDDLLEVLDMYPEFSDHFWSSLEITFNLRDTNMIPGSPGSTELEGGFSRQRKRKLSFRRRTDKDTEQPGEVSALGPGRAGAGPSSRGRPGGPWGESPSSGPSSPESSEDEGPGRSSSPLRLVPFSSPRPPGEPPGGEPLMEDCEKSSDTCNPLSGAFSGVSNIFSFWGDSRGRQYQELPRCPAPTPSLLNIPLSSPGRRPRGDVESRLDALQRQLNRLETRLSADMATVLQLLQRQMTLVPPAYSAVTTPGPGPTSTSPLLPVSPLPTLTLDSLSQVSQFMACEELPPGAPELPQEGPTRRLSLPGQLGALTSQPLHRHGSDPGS
Source text: A patch-clamp assay on the QPatch© automated patch clamp system was employed to assesses whether compounds functionally enhance the cardiac delayed rectifier hERG (human ether-a-go-go-related gene) potassium channel. The assay measures electric the current passing through hERG channels that are heterologously expressed in a stable Chinese hamster ovary (CHO) cell line. Channels are opened by a hERG-specific voltage protocol and the compound effect is directly characterized by the activation of the hERG current. EC50 values are obtained from fitting 4-concentration dose response curves (1.1, 3.3, 10 & 30 uM) in triplicates at 4 different sections of the voltage protocol (steady state current amplitude at +10 mV, at +30 mV, peak tail current amplitude and tail current amplitude at 7 second).
With `Fc1ccc(NCc2ccc3cc(-c4nn[nH]n4)oc3c2)cc1CC(F)(F)F` [Example 58] the “% change@TL7@10 uM” value was 71%. With `Fc1cc2cc(-c3nnn[nH]3)oc2cc1CNc1ccc(OCC(F)(F)F)c(Cl)c1` [Example 205] the “% change@TL7@10 uM” value was 222%. In the case of `CCOc1ccc(NCc2cc3oc(-c4nnn[nH]4)cc3cc2Cl)cc1C(F)(F)F` [Example 10], the “% change@TL7@10 uM” value is reported as 285%. For `Fc1cc2cc(-c3nnn[nH]3)oc2cc1CNc1ccc(Cl)c(Br)c1` [Example 180], the “% change@TL7@10 uM” value was 231%. In the case of `FC(F)(F)c1cc(NCc2cc3oc(-c4nnn[nH]4)cc3cc2Cl)cc(C(F)(F)F)c1Br` [Example 189], the “% change@TL7@10 uM” value is reported as 350%. In the case of `O=C(O)c1cc2ccc(CNc3cccc(N4CCOCC4)c3)cc2o1` [Example 109], the “% change@TL7@10 uM” value is reported as 81%. In the case of `Fc1cc2cc(-c3nnn[nH]3)oc2cc1CNc1ccc(OCC(F)(F)F)c(C(F)(F)F)c1` [Example 168], the “% change@TL7@10 uM” value is reported as 240%. For `Cc1cc(NCc2ccc3cc(-c4nn[nH]n4)oc3c2)ccc1OC(F)(F)F` [Example 21], the “% change@TL7@10 uM” value was 333%. With `FC(F)(F)Oc1ccc(NCc2ccc3c(C(F)(F)F)c(-c4nnn[nH]4)oc3c2)cc1Cl` [Example 54] the “% change@TL7@10 uM” value was 94%. For `CCCc1ccc(NCc2ccc3oc(-c4nnn[nH]4)cc3c2)cc1Cl` [Example 71], the “% change@TL7@10 uM” value was 193%. With `FC(F)(F)c1ccc(NCc2cc3oc(-c4nnn[nH]4)cc3cc2Cl)cc1C(F)(F)F` [Example 14] the “% change@TL7@10 uM” value was 196%. For `Fc1cc(NCc2ccc3cc(-c4nn[nH]n4)oc3c2)cc(Br)c1F` [Example 35], the “% change@TL7@10 uM” value was 180%. For `O=C(O)c1cc2ccc(CNc3ccc(OC(F)(F)F)c(C(F)(F)F)c3)cc2o1` [Example 92], the “% change@TL7@10 uM” value was 215%. With `O=C(O)c1cc2cc(F)c(CNc3ccc(OC(F)(F)F)c(Br)c3)cc2o1` [Example 227] the “% change@TL7@10 uM” value was 188%. In the case of `Clc1cc(NNCc2ccc3cc(-c4nn[nH]n4)oc3c2)cc(Cl)c1Cl` [Example 45], the “% change@TL7@10 uM” value is reported as 145%. `FC(F)Oc1ccc(NCc2ccc3cc(-c4nn[nH]n4)oc3c2)cc1Cl` [Example 17] was tested, and the “% change@TL7@10 uM” value was 477%. `FC(F)(F)Oc1cc(NCc2ccc3cc(-c4nn[nH]n4)oc3c2)ccc1Br` [Example 48] was tested, and the “% change@TL7@10 uM” value was 123%. `FC(F)(F)Oc1ccc(NCc2ccc3c(C(F)(F)F)c(-c4nnn[nH]4)oc3c2)cc1C(F)(F)F` [Example 38] was tested, and the “% change@TL7@10 uM” value was 164%. `CCOc1c(Cl)cc(NCc2cc3oc(-c4nnn[nH]4)cc3cc2Cl)cc1Cl` [Example 5] was tested, and the “% change@TL7@10 uM” value was 146%. For `FC(F)(F)Oc1ccc(NCc2ccc3c(C(F)(F)F)c(-c4nnn[nH]4)oc3c2)cc1Br` [Example 47], the “% change@TL7@10 uM” value was 131%. With `CCCc1ccc(NCc2ccc3c(C(F)(F)F)c(-c4nnn[nH]4)oc3c2)cc1C(F)(F)F` [Example 55] the “% change@TL7@10 uM” value was 90%. With `O=C(O)c1cc2ccc(CNc3ccc(SC(F)(F)F)c(C(F)(F)F)c3)cc2o1` [Example 91] the “% change@TL7@10 uM” value was 226%. In the case of `CCc1ccc(NCc2ccc3cc(C(=O)O)oc3c2)cc1C(F)(F)F` [Example 100], the “% change@TL7@10 uM” value is reported as 156%. For `FC(F)(F)c1ccc(NCc2ccc3c(C(F)(F)F)c(-c4nnn[nH]4)oc3c2)cc1Cl` [Example 61], the “% change@TL7@10 uM” value was 47%. With `O=C(O)c1cc2ccc(CNc3ccc(N4CCOCC4)c(Br)c3)cc2o1` [Example 98] the “% change@TL7@10 uM” value was 158%. `CCCc1ccc(NC(C)c2ccc3oc(-c4nnn[nH]4)cc3c2)cc1C(F)(F)F` (centres unmarked) [Example 81] was tested, and the “% change@TL7@10 uM” value was 74%. `CCCc1cc(NCc2ccc3oc(-c4nnn[nH]4)cc3c2)ccc1Cl` [Example 68] was tested, and the “% change@TL7@10 uM” value was 224%. In the case of `FC(F)(F)Sc1ccc(NCc2ccc3cc(-c4nn[nH]n4)oc3c2)cc1Cl` [Example 20], the “% change@TL7@10 uM” value is reported as 340%. For `O=C(O)c1cc2ccc(CNc3cc(F)c(F)c(Br)c3)cc2o1` [Example 106], the “% change@TL7@10 uM” value was 90%. With `Fc1cc(NCc2ccc3cc(-c4nn[nH]n4)oc3c2)ccc1OC(F)(F)F` [Example 43] the “% change@TL7@10 uM” value was 148%. For `Cc1cc(NCc2cc3oc(-c4nnn[nH]4)cc3cc2F)cc(C(F)(F)F)c1` [Example 195], the “% change@TL7@10 uM” value was 249%. With `CCCc1ccc(NCc2ccc3cc(C(=O)O)oc3c2)cc1Cl` [Example 93] the “% change@TL7@10 uM” value was 212%. In the case of `CCOc1ccc(NCc2ccc3c(C(F)(F)F)c(-c4nnn[nH]4)oc3c2)cc1C(F)(F)F` [Example 56], the “% change@TL7@10 uM” value is reported as 88%. For `FC(F)(F)Oc1ccc(NCc2ccc3cc(-c4nn[nH]n4)oc3c2)cc1Cl` [Example 46], the “% change@TL7@10 uM” value was 139%. `Fc1cc(CNc2ccc(OCC(F)(F)F)c(C(F)(F)F)c2)cc2cc(-c3nnn[nH]3)oc12` [Example 147] was tested, and the “% change@TL7@10 uM” value was 151%. `CCCc1ccc(NCc2ccc3oc(-c4nnn[nH]4)c(C)c3c2)cc1C(F)(F)F` [Example 82] was tested, and the “% change@TL7@10 uM” value was 39%. `FC(F)(F)Oc1cc(Cl)cc(NCc2cc3oc(-c4nnn[nH]4)cc3cc2Cl)c1` [Example 212] was tested, and the “% change@TL7@10 uM” value was 116%. In the case of `FC(F)(F)COc1ccc(NCc2ccc3cc(-c4nn[nH]n4)oc3c2)cc1Cl` [Example 44], the “% change@TL7@10 uM” value is reported as 146%. For `FC1(F)Oc2ccc(NCc3ccc4cc(-c5nn[nH]n5)oc4c3)cc2O1` [Example 40], the “% change@TL7@10 uM” value was 161%. For `O=C(O)c1cc2ccc(CNc3ccc(C(F)(F)F)c(C(F)(F)F)c3)cc2o1` [Example 101], the “% change@TL7@10 uM” value was 156%. In the case of `O=C(O)c1cc2ccc(CNc3cc(Br)c(Br)c(Br)c3)cc2o1` [Example 85], the “% change@TL7@10 uM” value is reported as 397%. With `FC(F)(F)Oc1ccc(NCc2ccc3cc(-c4nn[nH]n4)oc3c2)cc1OC(F)(F)F` [Example 41] the “% change@TL7@10 uM” value was 160%. `Fc1cc2cc(-c3nnn[nH]3)oc2cc1CNc1ccc(C(F)(F)F)c(F)c1` [Example 203] was tested, and the “% change@TL7@10 uM” value was 136%. `COc1ccc(NCc2ccc3cc(-c4nn[nH]n4)oc3c2)cc1Br` [Example 174] was tested, and the “% change@TL7@10 uM” value was 273%. With `Cc1c(-c2nnn[nH]2)oc2ccc(CNc3ccc(SC(F)(F)F)c(Cl)c3)cc12` [Example 70] the “% change@TL7@10 uM” value was 200%. With `Fc1cc2cc(-c3nnn[nH]3)oc2cc1CNc1ccc(C(F)(F)F)c(Cl)c1` [Example 196] the “% change@TL7@10 uM” value was 169%. With `CSc1cccc(NCc2ccc3cc(C(=O)O)oc3c2)c1` [Example 97] the “% change@TL7@10 uM” value was 159%. `CC(C)Oc1ccc(NCc2cc3oc(-c4nnn[nH]4)cc3cc2Br)cc1C(F)(F)F` [Example 173] was tested, and the “% change@TL7@10 uM” value was 278%. In the case of `FC(F)(F)Oc1cc(Cl)cc(NCc2ccc3oc(-c4nnn[nH]4)cc3c2)c1` [Example 75], the “% change@TL7@10 uM” value is reported as 123%. For `FC(F)Oc1ccc(NCc2cc3oc(-c4nnn[nH]4)cc3cc2Br)cc1C(F)(F)F` [Example 156], the “% change@TL7@10 uM” value was 356%. `Fc1cc2cc(-c3nnn[nH]3)oc2cc1CNc1ccc(C(F)(F)F)c(C(F)(F)F)c1` [Example 158] was tested, and the “% change@TL7@10 uM” value was 277%. In the case of `CC(C)COc1ccc(NCc2ccc3cc(-c4nn[nH]n4)oc3c2)cc1Br` [Example 216], the “% change@TL7@10 uM” value is reported as 88%. For `O=C(O)c1cc2ccc(CNc3ccc4c(c3)OCCO4)cc2o1` [Example 105], the “% change@TL7@10 uM” value was 105%. In the case of `CC(Nc1ccc(SC(F)(F)F)c(Cl)c1)c1ccc2oc(-c3nnn[nH]3)cc2c1` (centres unmarked) [Example 74], the “% change@TL7@10 uM” value is reported as 124%. For `CCCc1ccc(NC(C)c2ccc3oc(-c4nnn[nH]4)cc3c2)cc1Cl` (centres unmarked) [Example 84], the “% change@TL7@10 uM” value was 29%. `O=C(O)c1cc2ccc(CNc3ccc(C(=O)C(F)(F)F)cc3)cc2o1` [Example 103] was tested, and the “% change@TL7@10 uM” value was 112%. For `CCCc1c(C)cc(NCc2ccc3oc(-c4nnn[nH]4)cc3c2)cc1Cl` [Example 69], the “% change@TL7@10 uM” value was 221%. `O=C(O)c1cc2cc(F)c(CNc3cc(Cl)c(Cl)c(Cl)c3)cc2o1` [Example 232] was tested, and the “% change@TL7@10 uM” value was 247%. For `CCCc1ccc(NCc2ccc3oc(-c4nnn[nH]4)cc3c2)cc1C` [Example 80], the “% change@TL7@10 uM” value was 83%. `O=C(O)c1cc2ccc(CNc3ccc(OCC(F)(F)F)c(C(F)(F)F)c3)cc2o1` [Example 118] was tested, and the “% change@TL7@10 uM” value was 27%. For `Fc1cc2cc(-c3nnn[nH]3)oc2cc1CNc1ccc(Cl)c(C(F)(F)F)c1` [Example 150], the “% change@TL7@10 uM” value was 218%.

The compounds below were run against T1, hERG (human ether-a-go-go-related gene) potassium channel (assay: not given). Conditions: not given.
With `O=c1cc(C(F)(F)F)c2ccc(NCc3ccc4cc(-c5nn[nH]n5)oc4c3)cc2o1` [Example 222] the “% change@TL7@10 uM” value was 41%.
